Laboratory results published in paper PMC11267565, “Glutathione-Based Photoaffinity Probe Identifies Caffeine as a Positive Allosteric Modulator of the Calcium-Sensing Receptor” (ACS Chemical Biology, 2024).

What was measured:
[1] = target: T1, calcium-sensing receptor (CaSR) (Homo sapiens, UniProt P41180); test: concentration-dependent competition with DAZ-G photo-conjugation in cells; format: cell-based; parameters: FLAG-CaSR
T1 sequence (P41180 20-1078): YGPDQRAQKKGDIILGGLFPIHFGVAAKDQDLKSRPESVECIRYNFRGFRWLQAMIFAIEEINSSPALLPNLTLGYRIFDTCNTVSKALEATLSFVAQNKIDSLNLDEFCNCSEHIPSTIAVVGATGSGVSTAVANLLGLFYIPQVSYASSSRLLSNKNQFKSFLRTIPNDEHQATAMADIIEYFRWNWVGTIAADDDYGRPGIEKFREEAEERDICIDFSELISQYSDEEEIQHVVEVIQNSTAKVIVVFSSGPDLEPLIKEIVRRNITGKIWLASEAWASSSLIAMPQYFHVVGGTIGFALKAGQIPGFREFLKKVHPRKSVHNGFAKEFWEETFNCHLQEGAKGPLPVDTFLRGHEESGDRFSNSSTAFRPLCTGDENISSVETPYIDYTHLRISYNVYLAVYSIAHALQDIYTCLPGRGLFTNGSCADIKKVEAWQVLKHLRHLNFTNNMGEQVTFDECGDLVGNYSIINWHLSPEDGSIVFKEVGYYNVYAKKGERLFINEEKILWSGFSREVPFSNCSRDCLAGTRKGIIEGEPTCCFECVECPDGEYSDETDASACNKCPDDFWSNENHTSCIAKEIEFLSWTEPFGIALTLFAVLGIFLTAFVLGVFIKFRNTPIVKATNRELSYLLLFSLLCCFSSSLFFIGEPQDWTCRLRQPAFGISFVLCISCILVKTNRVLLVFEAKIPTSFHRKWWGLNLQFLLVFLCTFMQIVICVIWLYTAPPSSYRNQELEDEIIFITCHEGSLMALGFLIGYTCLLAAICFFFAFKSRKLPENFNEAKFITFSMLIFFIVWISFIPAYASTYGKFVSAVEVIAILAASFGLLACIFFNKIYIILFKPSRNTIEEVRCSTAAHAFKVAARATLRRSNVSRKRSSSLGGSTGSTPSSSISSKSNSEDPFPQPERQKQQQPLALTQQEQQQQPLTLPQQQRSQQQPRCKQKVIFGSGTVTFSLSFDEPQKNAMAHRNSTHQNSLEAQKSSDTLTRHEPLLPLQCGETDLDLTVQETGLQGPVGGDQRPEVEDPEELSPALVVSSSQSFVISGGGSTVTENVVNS

[2] = target: T1, calcium-sensing receptor (CaSR); test: Cal-520 Ca2+ flux in HEK293-CaSR cells (EC50); competition with DAZ-G photo-conjugation; E837A and S170A mutants; format: cell-based

SMILES | concentration-dependent competition with DAZ-G photo-conjugation in cells [1] | EC50 [2] [µM]
N[C@@H](Cc1ccccc1)C(=O)O [L-Phe] | L-Phe, a prototype ligand for ABS, induced concentration-dependent competition to DAZ-G | 
Cn1c(=O)c2c(ncn2C)n(C)c1=O [caffeine] |  | 3.35
